Test results: ChEMBL document CHEMBL5620405, “A platform for the rapid synthesis of molecular glues (Rapid-Glue) under miniaturized conditions for direct biological screening” (Eur J Med Chem, 2023)
Calls of active or inactive are those of the source. No cut-off for these calls is given here.

Legend:
[1] = system: RS4-11; assay: Antiproliferative activity against human RS4-11 cells assessed as cell viability at 1 uM measured after 72 hrs by Alamar blue assay; format: functional; settings: read-out: Activity
[2] = system: MOLT-4; assay: Antiproliferative activity against human MOLT-4 cells assessed as cell viability at 1 uM measured after 72 hrs by Alamar blue assay; format: functional; settings: read-out: Activity
[3] = system: RS4-11; assay: Antiproliferative activity against human RS4-11 cells assessed as reduction in cell viability measured after 72 hrs by Alamar blue assay; format: functional, cell-based; settings: RS4-11, 72 h
[4] = system: MOLT-4; assay: Antiproliferative activity against human MOLT-4 cells assessed as reduction in cell viability measured after 72 hrs by Alamar blue assay; format: functional, cell-based; settings: MOLT-4, 72 h
[5] = system: MM1.S; assay: Antiproliferative activity against human MM1.S cells assessed as reduction in cell viability measured after 72 hrs by Alamar blue assay; format: functional, cell-based
[6] = system: RS4-11; assay: Antiproliferative activity against human RS4-11 cells assessed as cell viability at 0.5 uM measured after 72 hrs by Alamar blue assay; format: functional; settings: read-out: Activity
[7] = system: RS4-11; assay: Antiproliferative activity against human RS4-11 cells assessed as cell viability at 0.1 uM measured after 72 hrs by Alamar blue assay; format: functional; settings: read-out: Activity
[8] = target: T1, Protein cereblon/Eukaryotic peptide chain release factor GTP-binding subunit ERF3A (Homo sapiens, UniProt Q96SW2+P15170); assay: Molecular glue activity at CRBN/GSPT1 in human RS4-11 cells assessed as induction of GSPT1 degradation at 1 uM measured after 4 hrs by western blot analysis; format: cell-based
Target sequence in this assay (P15170 whole entry, looked up): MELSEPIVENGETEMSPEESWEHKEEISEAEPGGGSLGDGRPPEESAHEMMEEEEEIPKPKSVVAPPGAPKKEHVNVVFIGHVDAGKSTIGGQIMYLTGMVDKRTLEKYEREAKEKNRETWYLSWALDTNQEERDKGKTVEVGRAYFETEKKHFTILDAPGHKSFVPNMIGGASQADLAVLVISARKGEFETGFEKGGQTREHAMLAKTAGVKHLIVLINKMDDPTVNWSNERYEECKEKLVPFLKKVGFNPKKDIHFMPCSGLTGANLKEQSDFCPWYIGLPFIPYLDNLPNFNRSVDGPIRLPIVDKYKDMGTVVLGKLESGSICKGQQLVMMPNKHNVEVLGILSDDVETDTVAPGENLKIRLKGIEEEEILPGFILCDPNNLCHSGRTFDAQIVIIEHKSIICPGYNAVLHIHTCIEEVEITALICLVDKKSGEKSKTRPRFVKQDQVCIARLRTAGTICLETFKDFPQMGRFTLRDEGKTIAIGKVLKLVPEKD
Target sequence in this assay (Q96SW2 whole entry, looked up): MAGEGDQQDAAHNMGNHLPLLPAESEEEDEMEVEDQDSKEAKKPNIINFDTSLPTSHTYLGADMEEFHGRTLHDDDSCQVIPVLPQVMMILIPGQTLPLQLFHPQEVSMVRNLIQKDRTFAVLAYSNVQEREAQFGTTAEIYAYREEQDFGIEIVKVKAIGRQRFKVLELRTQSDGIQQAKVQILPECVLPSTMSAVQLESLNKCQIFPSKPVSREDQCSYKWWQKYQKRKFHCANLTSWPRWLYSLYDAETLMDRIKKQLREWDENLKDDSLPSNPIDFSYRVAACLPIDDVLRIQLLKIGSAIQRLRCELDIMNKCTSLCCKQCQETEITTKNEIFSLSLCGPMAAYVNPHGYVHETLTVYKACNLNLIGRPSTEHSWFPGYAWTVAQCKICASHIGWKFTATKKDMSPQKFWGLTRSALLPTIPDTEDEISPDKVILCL

[9] = target: T1, Protein cereblon/Eukaryotic peptide chain release factor GTP-binding subunit ERF3A; assay: Molecular glue activity at CRBN/GSPT1 in human RS4-11 cells assessed as induction of GSPT1 degradation at 0.1 uM measured after 24 hrs by western blot analysis; format: cell-based
Target sequence in this assay (P15170 whole entry, looked up): as the sequence (P15170 whole entry, looked up) above
Target sequence in this assay (Q96SW2 whole entry, looked up): as the sequence (Q96SW2 whole entry, looked up) above

[10] = target: T1, Protein cereblon/Eukaryotic peptide chain release factor GTP-binding subunit ERF3A; assay: Molecular glue activity at CRBN/GSPT1 in human RS4-11 cells assessed as induction of GSPT1 degradation measured after 12 hrs by western blot analysis; format: cell-based; settings: dose 0.0001-10 µM
Target sequence in this assay (P15170 whole entry, looked up): as the sequence (P15170 whole entry, looked up) above
Target sequence in this assay (Q96SW2 whole entry, looked up): as the sequence (Q96SW2 whole entry, looked up) above

[11] = target: T1, Protein cereblon/Eukaryotic peptide chain release factor GTP-binding subunit ERF3A; assay: Molecular glue activity at CRBN/GSPT1 in human RS4-11 cells assessed as induction of GSPT1 degradation at 1 uM by western blot analysis; format: cell-based; settings: time 0.5-24 hrs, TDE = time-dependent effect
Target sequence in this assay (P15170 whole entry, looked up): as the sequence (P15170 whole entry, looked up) above
Target sequence in this assay (Q96SW2 whole entry, looked up): as the sequence (Q96SW2 whole entry, looked up) above

[12] = target: T1, Protein cereblon/Eukaryotic peptide chain release factor GTP-binding subunit ERF3A; assay: Molecular glue activity at CRBN/GSPT1 in human RS4-11 cells assessed as induction of GSPT1 degradation by western blot analysis; format: cell-based
Target sequence in this assay (Q96SW2 whole entry): as the sequence (Q96SW2 whole entry, looked up) above
Target sequence in this assay (P15170 whole entry): as the sequence (P15170 whole entry, looked up) above

[13] = target: T1, Protein cereblon/Eukaryotic peptide chain release factor GTP-binding subunit ERF3A; assay: Molecular glue activity at CRBN/GSPT1 in human RS4-11 cells assessed as induction of GSPT1 degradation by measuring reduction in GSPT1 level measured for 6 hrs by western blot analysis; format: cell-based; design: scale not given: the % may be the effect or the level left
Target sequence in this assay (P15170 whole entry, looked up): as above
Target sequence in this assay (Q96SW2 whole entry, looked up): as the sequence (Q96SW2 whole entry, looked up) above

[14] = target: T1, Protein cereblon/Eukaryotic peptide chain release factor GTP-binding subunit ERF3A; assay: Molecular glue activity at CRBN/GSPT1 in human RS4-11 cells assessed as downregulation of GSPT1 expression at 1 uM measured after 6 hrs by TMT-mass spectrometry; format: cell-based
Target sequence in this assay (P15170 whole entry, looked up): as the sequence (P15170 whole entry, looked up) above
Target sequence in this assay (Q96SW2 whole entry, looked up): as the sequence (Q96SW2 whole entry, looked up) above

SMILES	viability at 1 µM [1] [%]	viability at 1 µM [2] [%]	IC50 [3] [nM]	IC50 [4] [nM]	IC50 [5] [nM]	DC50 [12] [nM]	further results
O=C(COc1ccc(-c2ccc3c(c2)CN(C2CCC(=O)NC2=O)C3=O)cc1)N/N=C/c1c(C(F)(F)F)ccc(Cl)c1Cl (centres undefined)	54	67	–	–	–	–	–
CN1C(=O)CCC(N2Cc3c(cccc3-c3ccccc3OCC(=O)N/N=C/c3cn(S(=O)(=O)c4ccccc4)c4ccccc34)C2=O)C1=O (centres undefined)	97	> 100	> 1000	> 1000	> 10000	–	–
O=C(COc1ccccc1-c1cccc2c1CN(C1CCC(=O)NC1=O)C2=O)N/N=C/c1cn(S(=O)(=O)c2ccccc2)c2ccccc12 (centres undefined)	15	43	7	175	131	154	viability at 0.5 µM [6]: 5%; viability at 0.1 µM [7]: 52%; Activity [8]: 100%; Activity [9]: 100%; Activity [10]: Dose-Dependent Effect; Activity [11]: Tde; Activity [13]: > 50%; Activity [14]: Active
Cc1nc2ccccn2c1/C=N/NC(=O)COc1ccccc1-c1cccc2c1CN(C1CCC(=O)N(C)C1=O)C2=O (centres undefined)	89	> 100	> 10000	> 10000	> 10000	–	–
CN1C(=O)CCC(N2Cc3cc(-c4ccc(OCC(=O)N/N=C/c5c(Cl)ccc(C(F)(F)F)c5Cl)cc4)ccc3C2=O)C1=O (centres undefined)	> 100	> 100	–	–	–	–	–
O=C(COc1ccc(-c2ccc3c(c2)CN(C2CCC(=O)NC2=O)C3=O)cc1)N/N=C/c1c(Cl)ccc(C(F)(F)F)c1Cl (centres undefined)	47	74	–	–	–	–	–
Cc1nc2ccccn2c1/C=N/NC(=O)COc1ccccc1-c1cccc2c1CN(C1CCC(=O)NC1=O)C2=O (centres undefined)	25	52	7	> 10000	> 10000	–	viability at 0.5 µM [6]: 15%; viability at 0.1 µM [7]: 46%
CN1C(=O)CCC(N2Cc3cc(-c4ccc(OCC(=O)N/N=C/c5c(C(F)(F)F)ccc(Cl)c5Cl)cc4)ccc3C2=O)C1=O (centres undefined)	> 100	> 100	–	–	–	–	–
O=C(COc1ccccc1-c1cccc2c1CN(C1CCC(=O)NC1=O)C2=O)NCc1nn(Cc2ccccc2)c2ccccc12 (centres undefined)	–	–	–	–	–	785	–
O=C(COc1ccccc1-c1cccc2c1CN(C1CCC(=O)NC1=O)C2=O)NCCc1cn(S(=O)(=O)c2ccccc2)c2ccccc12 (centres undefined)	–	–	–	–	–	168	–
CN1CCN(c2ncc(/C=N/NC(=O)COc3ccccc3-c3cccc4c3CN(C3CCC(=O)NC3=O)C4=O)s2)CC1 (centres undefined)	24	66	71	> 1000	> 10000	–	viability at 0.5 µM [6]: 23%; viability at 0.1 µM [7]: 56%
CN1C(=O)CCC(N2Cc3c(cccc3-c3ccccc3OCC(=O)N/N=C/c3nn(Cc4ccccc4)c4ccccc34)C2=O)C1=O (centres undefined)	98	> 100	> 1000	> 1000	> 1000	–	–
CN1CCN(c2ncc(/C=N/NC(=O)COc3ccccc3-c3cccc4c3CN(C3CCC(=O)N(C)C3=O)C4=O)s2)CC1 (centres undefined)	96	> 100	> 1000	> 10000	> 10000	–	–
O=C(COc1ccccc1-c1cccc2c1CN(C1CCC(=O)NC1=O)C2=O)N/N=C/c1nn(Cc2ccccc2)c2ccccc12 (centres undefined)	11	7	2	260	370	50	viability at 0.5 µM [6]: 6%; viability at 0.1 µM [7]: 86%; Activity [8]: 100%; Activity [9]: 100%; Activity [10]: Dose-Dependent Effect; Activity [11]: Tde; Activity [13]: > 50%; Activity [14]: Active
O=C(COc1ccccc1-c1cccc2c1CN(C1CCC(=O)NC1=O)C2=O)NCc1cn(S(=O)(=O)c2ccccc2)c2ccccc12 (centres undefined)	–	–	–	–	–	166	–
O=C1CCC(N2Cc3cc(CNC(=O)C(F)(F)c4ccc(Cl)cc4)ccc3C2=O)C(=O)N1 (centres undefined)	–	–	0.1	–	–	–	–
